Results: patent US20250186436A1 (4E Therapeutics, Inc., priority 2021, published 2025)
Read-outs that look alike come from different tables or passages of the source.

Tests used:
[1] = target: T1, recombinant full-length human kinase MNK1 (Homo sapiens, UniProt Q9BUB5); assay: MNK1 radiometric kinase activity assay; type: biochemical
T1 construct: the recombinant full-length human kinase MNK1; made in house; host or cells: insect cells

[2] = target: T2, recombinant full length human kinase MNK2 (Homo sapiens, UniProt Q9HBH9); assay: MNK2 radiometric kinase activity assay; type: biochemical
T2 construct: the recombinant full length human kinase MNK2; made in house; host or cells: insect cells
T2 sequence (Q9HBH9 whole entry): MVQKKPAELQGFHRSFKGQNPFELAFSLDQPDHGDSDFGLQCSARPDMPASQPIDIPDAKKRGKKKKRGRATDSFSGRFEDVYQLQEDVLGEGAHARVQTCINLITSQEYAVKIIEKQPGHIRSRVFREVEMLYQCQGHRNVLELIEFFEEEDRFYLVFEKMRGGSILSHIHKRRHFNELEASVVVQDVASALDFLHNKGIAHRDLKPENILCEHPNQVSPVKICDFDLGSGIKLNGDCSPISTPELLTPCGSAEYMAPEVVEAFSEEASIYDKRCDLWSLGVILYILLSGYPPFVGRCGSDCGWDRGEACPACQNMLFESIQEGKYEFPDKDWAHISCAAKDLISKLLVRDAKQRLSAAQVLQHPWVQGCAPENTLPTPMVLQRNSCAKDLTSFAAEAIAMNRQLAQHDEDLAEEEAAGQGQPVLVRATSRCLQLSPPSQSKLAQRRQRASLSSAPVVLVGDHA

[3] = system: eIF4E phosphorylation at Serine 209 in HEK 293 cells; assay: eIF4E phosphorylation in HEK 293 cells (phospho-specific antibody, fluorescent plate reader); type: cell-based; conditions: Homo sapiens, HEK293; eIF4E phosphorylation at Serine 209, 2 hours exposure; read-out: HEK 293 cell;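 note: Well-level p-eIF4E immunofluorescence normalized to DAPI signal, expressed as percent eIF4E phosphorylation, with IC50 derived from concentration-response curves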
[4] = Liver microsome stability; conditions: mouse, liver microsomes
P-gp (human MDR1, ABCB1) = assay: MDCK-MDR1 permeability (blood-brain barrier permeability); conditions: dog
[5] = radiometric activity assay, read-out: MNK1
[6] = radiometric activity assay, read-out: MNK2

T1 sequence (Q9BUB5 whole entry): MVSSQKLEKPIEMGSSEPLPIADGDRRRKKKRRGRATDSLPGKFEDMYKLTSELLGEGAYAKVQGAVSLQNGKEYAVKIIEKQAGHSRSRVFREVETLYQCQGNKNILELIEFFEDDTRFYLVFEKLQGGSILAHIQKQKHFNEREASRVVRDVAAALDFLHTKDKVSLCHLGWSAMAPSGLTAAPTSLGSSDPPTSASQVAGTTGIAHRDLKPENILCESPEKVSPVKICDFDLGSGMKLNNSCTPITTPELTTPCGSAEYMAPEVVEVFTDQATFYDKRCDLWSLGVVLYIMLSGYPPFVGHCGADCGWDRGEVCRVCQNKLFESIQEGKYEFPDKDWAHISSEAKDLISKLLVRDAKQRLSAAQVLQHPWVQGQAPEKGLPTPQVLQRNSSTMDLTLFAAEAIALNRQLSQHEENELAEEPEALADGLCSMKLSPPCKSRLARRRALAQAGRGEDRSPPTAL

Cc1cc(Nc2cc(N)ncn2)c(=O)n2c1C(=O)NC21CC2(CCC2)C1 [4ET-01-009, 6″-((6-aminopyrimidin-4-yl)amino)-8″-methyl-2″H-dispiro[cyclobutane-1,1′-cyclobutane-3′,3″-imidazo[1,5-a]pyridine]-1″,5″-dione]
IC50 [1, 5]: 13.1 nM | IC50 [2, 6]: 0.8 nM | IC50 [3]: 3.6 nM

Cc1cc(Nc2cc(N)ncn2)c(=O)n2c1C(=O)NC21CCC2(CC1)CN2 (stereo not drawn) [4ET-01-012, 6″-((6-aminopyrimidin-4-yl)amino)-8″-methyl-2″H-dispiro[aziridine-2,1′-cyclohexane-4′,3″-imidazo[1,5-a]pyridine]-1″,5″-dione]
IC50 [1]: 27.9 nM | IC50 [2]: 3 nM | IC50 [3]: 57.1 nM

Cc1cc(Nc2cc(N)ncn2)c(=O)n2c1C(=O)NC21CCC2(CCCC2)C1 (stereo not drawn) [4ET-01-016, 6″-((6-aminopyrimidin-4-yl)amino)-8″-methyl-2″H-dispiro[cyclopentane-1,1′-cyclopentane-3′,3″-imidazo[1,5-a]pyridine]-1″,5″-dione]
IC50 [1, 5]: 33 nM | IC50 [2, 6]: 3.5 nM | IC50 [3]: 8.9 nM | half-life [4]: 679 min | Papp A→B at 5 uM (P-gp (human MDR1, ABCB1)): 48.6 ×10⁻⁶ cm/s | Papp B→A at 5 uM (P-gp (human MDR1, ABCB1)): 46.5 ×10⁻⁶ cm/s | efflux ratio at 5 uM (P-gp (human MDR1, ABCB1)): 1

Cc1cc(Nc2cc(N)ncn2)c(=O)n2c1C(=O)NC21CC2(CC(F)(F)C2)C1 [4ET-01-017, 6″-((6-aminopyrimidin-4-yl)amino)-3,3-difluoro-8″-methyl-2″H-dispiro[cyclobutane-1,1′-cyclobutane-3′,3″-imidazo[1,5-a]pyridine]-1″,5″-dione]
IC50 [1, 5]: 69.2 nM | IC50 [2, 6]: 7.9 nM | IC50 [3]: 41.6 nM | half-life [4]: 261 min | Papp A→B at 5 uM (P-gp (human MDR1, ABCB1)): 29 ×10⁻⁶ cm/s | Papp B→A at 5 uM (P-gp (human MDR1, ABCB1)): 47.2 ×10⁻⁶ cm/s | efflux ratio at 5 uM (P-gp (human MDR1, ABCB1)): 1.6

Cc1cc(Nc2cc(N)ncn2)c(=O)n2c1C(=O)NC21CC2(CCCC2)C1 [4ET-01-018, 6″-((6-aminopyrimidin-4-yl)amino)-8″-methyl-2″H-dispiro[cyclopentane-1,1′-cyclobutane-3′,3″-imidazo[1,5-a]pyridine]-1″,5″-dione]
IC50 [1, 5]: 41.8 nM | IC50 [2, 6]: 4.1 nM | IC50 [3]: 4.1 nM | half-life [4]: 51.2 min | Papp A→B at 5 uM (P-gp (human MDR1, ABCB1)): 50.8 ×10⁻⁶ cm/s | Papp B→A at 5 uM (P-gp (human MDR1, ABCB1)): 66.7 ×10⁻⁶ cm/s | efflux ratio at 5 uM (P-gp (human MDR1, ABCB1)): 1.3

Cc1cc(Nc2cc(N)ncn2)c(=O)n2c1C(=O)NC21CCC2(CCC2)CC1 [4ET-01-019, 6″-((6-aminopyrimidin-4-yl)amino)-8″-methyl-2″H-dispiro[cyclobutane-1,1′-cyclohexane-4′,3″-imidazo[1,5-a]pyridine]-1″,5″-dione]
IC50 [1, 5]: 43.9 nM | IC50 [2, 6]: 4.2 nM | IC50 [3]: 4.9 nM | half-life [4]: 252 min | Papp A→B at 5 uM (P-gp (human MDR1, ABCB1)): 43.9 ×10⁻⁶ cm/s | Papp B→A at 5 uM (P-gp (human MDR1, ABCB1)): 71.9 ×10⁻⁶ cm/s | efflux ratio at 5 uM (P-gp (human MDR1, ABCB1)): 1.6

Cc1cc(Nc2cc(N)ncn2)c(=O)n2c1C(=O)NC21CC2(CCCCC2)C1 [4ET-01-020, 6″-((6-aminopyrimidin-4-yl)amino)-8″-methyl-2″H-dispiro[cyclohexane-1,1′-cyclobutane-3′,3″-imidazo[1,5-a]pyridine]-1″,5″-dione]
IC50 [1, 5]: 36 nM | IC50 [2, 6]: 3 nM | IC50 [3]: 4.3 nM | half-life [4]: 47.6 min | Papp A→B at 5 uM (P-gp (human MDR1, ABCB1)): 46.7 ×10⁻⁶ cm/s | Papp B→A at 5 uM (P-gp (human MDR1, ABCB1)): 70.7 ×10⁻⁶ cm/s | efflux ratio at 5 uM (P-gp (human MDR1, ABCB1)): 1.5

Cc1cc(Nc2cc(N)ncn2)c(=O)n2c1C(=O)NC21CCCC2(CC2)C1 (stereo not drawn) [4ET-01-042, 6″-((6-Aminopyrimidin-4-yl)amino)-8″-methyl-2″H-dispiro[cyclopropane-1,1′-cyclohexane-3′,3″-imidazo[1,5-a]pyridine]-1″,5″-dione]
IC50 [1, 5]: 16.5 nM | IC50 [2, 6]: 2 nM | IC50 [3]: 0.8 nM | half-life [4]: 113 min | Papp A→B at 5 uM (P-gp (human MDR1, ABCB1)): 50.4 ×10⁻⁶ cm/s | Papp B→A at 5 uM (P-gp (human MDR1, ABCB1)): 68.9 ×10⁻⁶ cm/s | efflux ratio at 5 uM (P-gp (human MDR1, ABCB1)): 1.4

Cc1cc(Nc2cc(NC(=O)C3CC3)ncn2)c(=O)n2c1C(=O)NC21CC2(CCC2)C1 [4ET-03-043, N-(6-((8″-methyl-1″,5″-dioxo-1″,5″-dihydro-2″H-dispiro[cyclobutane-1,1′-cyclobutane-3′,3″-imidazo[1,5-a]pyridin]-6″-yl)amino)pyrimidin-4-yl)cyclopropanecarboxamide]
IC50 [1, 5]: 44.9 nM | IC50 [2, 6]: 1.7 nM | IC50 [3]: 0.9 nM | half-life [4]: 201 min | Papp A→B at 5 uM (P-gp (human MDR1, ABCB1)): 27.4 ×10⁻⁶ cm/s | Papp B→A at 5 uM (P-gp (human MDR1, ABCB1)): 56.3 ×10⁻⁶ cm/s | efflux ratio at 5 uM (P-gp (human MDR1, ABCB1)): 2.1

CCOC(=O)C1CC12CCC1(CC2)NC(=O)c2c(C)cc(Nc3cc(NC(=O)C4CC4)ncn3)c(=O)n21 (stereo not drawn) [4ET-03-045, ethyl 6″-((6-(cyclopropanecarboxamido)pyrimidin-4-yl)amino)-8″-methyl-1″,5″-dioxo-1″,5″-dihydro-2″H-dispiro [cyclopropane-1,1′-cyclohexane-4′,3″-imidazo[1,5-a]pyridine]-2-carboxylate]
IC50 [1, 5]: 131 nM | IC50 [2, 6]: 12.1 nM | IC50 [3]: 17.7 nM

Cc1cc(Nc2cc(NC(=O)C3CC3)ncn2)c(=O)n2c1C(=O)NC21CCC2(CC1)CN2C(=O)OCc1ccccc1 (stereo not drawn) [4ET-03-046]
IC50 [1, 5]: 49.8 nM | IC50 [2, 6]: 1.7 nM | IC50 [3]: 6.4 nM

Cc1cc(Nc2cc(NC(=O)C3CC3)ncn2)c(=O)n2c1C(=O)NC21CCC2(CC1)CN(C(=O)OC(C)(C)C)C2 [4ET-03-048, tert-butyl 6″-((6-(cyclopropanecarboxamido)pyrimidin-4-yl)amino)-8″-methyl-1″,5″-dioxo-1″,5″-dihydro-2″H-dispiro[azetidine-3,1′-cyclohexane-4′,3″-imidazo[1,5-a]pyridine]-1-carboxylate]
IC50 [1, 5]: 145 nM | IC50 [2, 6]: 5.2 nM | IC50 [3]: 6.1 nM

Cc1cc(Nc2cc(NC(=O)C3CC3)ncn2)c(=O)n2c1C(=O)NC21CCC2(CC1)CNC2 [4ET-03-049, N-(6-((8″-methyl-1″,5″-dioxo-1″,5″-dihydro-2″H-dispiro[azetidine-3,1′-cyclohexane-4′,3″-imidazo1[1,5-a]pyridin]-6″-yl)amino)pyrimidin-4-yl)cyclopropanecarboxamide]
IC50 [1, 5]: 80 nM | IC50 [2, 6]: 2.8 nM | IC50 [3]: 110 nM | half-life [4]: 146 min | Papp A→B at 5 uM (P-gp (human MDR1, ABCB1)): 0.3 ×10⁻⁶ cm/s | Papp B→A at 5 uM (P-gp (human MDR1, ABCB1)): 0.7 ×10⁻⁶ cm/s | efflux ratio at 5 uM (P-gp (human MDR1, ABCB1)): 2.1

Cc1cc(Nc2cc(NC(=O)C3(CN)CC3)ncn2)c(=O)n2c1C(=O)NC21CCC2(CC2)CC1 [4ET-03-055, 1-(aminomethyl)-N-(6-((8″-methyl-1″,5″-dioxo-1″,5″-dihydro-2″H-dispiro[cyclopropane-1,1′-cyclohexane-4′,3″-imidazo[1,5-a]pyridin]-6″-yl)amino)pyrimidin-4-yl)cyclopropane-1-carboxamide]
IC50 [1, 5]: 127 nM | IC50 [2, 6]: 29.5 nM | IC50 [3]: 44 nM | Papp A→B at 5 uM (P-gp (human MDR1, ABCB1)): 3 ×10⁻⁶ cm/s | Papp B→A at 5 uM (P-gp (human MDR1, ABCB1)): 57.6 ×10⁻⁶ cm/s | efflux ratio at 5 uM (P-gp (human MDR1, ABCB1)): 19

Cc1cc(Nc2cc(NC(=O)[C@H]3[C@@H]4CNC[C@@H]43)ncn2)c(=O)n2c1C(=O)NC21CCC2(CC2)CC1 [4ET-03-056, (1R,5S,6r)-N-(6-((8″-methyl-1″,5″-dioxo-1″,5″-dihydro-2″H-dispiro[cyclopropane-1,1′-cyclohexane-4′,3″-imidazo[1,5-a]pyridin]-638-yl)amino)pyrimidin-4-yl)-3-azabicyclo[3.1.0]hexane-6-carboxamide]
IC50 [1, 5]: 51.8 nM | IC50 [2, 6]: 3.5 nM | IC50 [3]: 11.1 nM | half-life [4]: 177 min | Papp A→B at 5 uM (P-gp (human MDR1, ABCB1)): 0.5 ×10⁻⁶ cm/s | Papp B→A at 5 uM (P-gp (human MDR1, ABCB1)): 15.9 ×10⁻⁶ cm/s | efflux ratio at 5 uM (P-gp (human MDR1, ABCB1)): 31.8

Cc1cc(Nc2cc(NC(=O)C3CC4(C3)CN(C)C4)ncn2)c(=O)n2c1C(=O)NC21CCC2(CC2)CC1 [4ET-03-060, 2-methyl-N-(6-((8″-methyl-1″,5″-dioxo-1″,5″-dihydro-2″H-dispiro[cyclopropane-1,1′-cyclohexane-4′,3″-imidazo[1,5-a]pyridin]-638-yl)amino)pyrimidin-4-yl)-2-azaspiro[3.3]heptane-6-carboxamide]
IC50 [1, 5]: 31 nM | IC50 [2, 6]: 1.7 nM | IC50 [3]: 6.5 nM

Cc1cc(Nc2cc(NC(=O)[C@H]3[C@@H]4CN(C)C[C@@H]43)ncn2)c(=O)n2c1C(=O)NC21CCC2(CC2)CC1 [4ET-03-061, (1R,5S,6r)-3-methyl-N-(6-((8″-methyl-1″,5″-dioxo-1″,5″-dihydro-2″H-dispiro[cyclopropane-1,1′-cyclohexane-4′,3″-imidazo[1,5-a]pyridin]-638-yl)amino)pyrimidin-4-yl)-3-azabicyclo[3.1.0]hexane-6-carboxamide]
IC50 [1, 5]: 36.2 nM | IC50 [2, 6]: 1.7 nM | IC50 [3]: 5.2 nM

Cc1cc(Nc2cc(N)ncn2)c(=O)n2c1C(=O)NC21CCC2(CC1)CC2(F)F (stereo not drawn) [4ET-03-068, 6″-((6-aminopyrimidin-4-yl)amino)-2,2-difluoro-8″-methyl-2″H-dispiro[cyclopropane-1,1′-cyclohexane-4′,3″-imidazo[1,5-a]pyridine]-1″,5″-dione]
IC50 [1, 5]: 25.3 nM | IC50 [2, 6]: 1.5 nM | IC50 [3]: 3.4 nM | half-life [4]: 296 min | Papp A→B at 5 uM (P-gp (human MDR1, ABCB1)): 18.7 ×10⁻⁶ cm/s | Papp B→A at 5 uM (P-gp (human MDR1, ABCB1)): 71 ×10⁻⁶ cm/s | efflux ratio at 5 uM (P-gp (human MDR1, ABCB1)): 3.8

Cc1cc(Nc2cc(NC(=O)C3(CNS(C)(=O)=O)CC3)ncn2)c(=O)n2c1C(=O)NC21CCC2(CC2)CC1 [4ET-03-076, N-(6-((8″-methyl-1″,5″-dioxo-1″,5″-dihydro-2″H-dispiro[cyclopropane-1,1′-cyclohexane-4′,3″-imidazo[1,5-a]pyridin]-638-yl)amino)pyrimidin-4-yl)-1-(methylsulfonamidomethyl)cyclopropane-1-carboxamide]
IC50 [1, 5]: 37.5 nM | IC50 [2, 6]: 12.2 nM

Cc1cc(Nc2cc(NC(=O)C3(CN(C)C)CC3)ncn2)c(=O)n2c1C(=O)NC21CCC2(CC2)CC1 [4ET-03-081, 1-((dimethylamino)methyl)-N-(6-((8″-methyl-1″,5″-dioxo-1″,5″-dihydro-2″H-dispiro[cyclopropane-1,1′-cyclohexane-4′,3″-imidazo[1,5-a]pyridin]-6″-yl)amino)pyrimidin-4-yl)cyclopropane-1-carboxamide]
IC50 [1, 5]: 30.3 nM | IC50 [2, 6]: 10.1 nM | half-life [4]: 74.2 min | Papp A→B at 5 uM (P-gp (human MDR1, ABCB1)): 17.1 ×10⁻⁶ cm/s | Papp B→A at 5 uM (P-gp (human MDR1, ABCB1)): 23.4 ×10⁻⁶ cm/s | efflux ratio at 5 uM (P-gp (human MDR1, ABCB1)): 1.4
